In article PMC2639705, “Two Chromogranin A-Derived Peptides Induce Calcium Entry in Human Neutrophils by Calmodulin-Regulated Calcium Independent Phospholipase A2” (PLoS ONE, 2009):
“Also recorded” adds a separate entry of the source. Read-outs that look alike come from different tables or passages of the source. Positions of bridges follow the written chain, without caps; N, C: chain ends. No end group written: not given here. rhodamine = not defined here

Assays:
pancreatic beta-cells = conditions: ref [2]; cited from earlier work
Excerpt: Chromogranin A (CgA) is a well-studied member of the chromogranin/secretogranin family, present in secretory cells of the nervous, endocrine and immune systems. CgA was the first chromogranin to be characterized as an acidic protein co-stored and co-released with the catecholamine hormones from the chromaffin cells of the adrenal medulla. […] Numerous endogenous cl ...

human PMNs = experiment: Flow cytometry, Ca2+ influx in Fluo-3-loaded PMNs; format: cell-based; conditions: for Ca2+ influx: human PMNs, Fluo-3, 20 µM peptide (or tryptic digest of 20 µM CAT/CHR), presence of extracellular Ca2+ (1 mM; 1.1 mM CaCl2 at t = 620 s), at least triplicates
PMNs [1] = experiment: Time-lapse intracellular Ca2+ imaging (Fura-2), with SOC/ARC blockers and iPLA2/PLA2 inhibitors; format: cell-based, human; conditions: for Ca2+ influx induced by CaM antagonists: 30 µM W7 or 1 µM CMZ
calmodulin (CaM) = experiment: Surface Plasmon Resonance, CaM binding to immobilized peptides; conditions: pH 6.5
Method: Figure 5 Interaction of CHR and CAT with calmodulin (CaM). A) Fluorescence confocal microscopy of PMNs after incubation during 120 s with 20 µM rhodamine-labeled peptides (Rho-CHR or Rho-CAT). Control peptide: 20 µM rhodamine labeled Hippocampal Cholinergic Neurostimulating Peptide (Rho-HCNP). The PMNs nuclei were labeled with Draq-5. B) Alignment of the CHR and CAT sequences with two CaM binding motifs 1-8-14 B and 1-5-10. The alignment has been obtained manually so that hydrophobic residues occupy invariant positions shown with boldface letters. The net positive charge is also indicated. C) (1) Interactions between CaM, CAT and CHR by Surface Plasmon Resonance (SPR) Peptides were immobilized on a CM5 Biacore chip using amine-coupling chemistry. CaM (5 µM) was added at arrow and allowed to stabilize for 10 min. Dissociation by washing was recorded for the following 10 min. All measurements were performed at 20°C. The resulting sensorgrams were analyzed using BIAevaluation Software. (2) Calmodulin-Affinity Chromatography of CHR and CAT. The retained and eluted peptides were immunodetected by dot blot with anti-CHR (monoclonal anti-CgA47–68) and anti-CAT (polyclonal anti-CgA344–364). […]
Experiments were conducted on a Biacore 3000™ (GE Healthcare) and peptides were immobilized on a CM5 Biacore chip using amine-coupling. […] Sensorgrams were analyzed by using BIAevaluation Software.

PMNs [2] = experiment: Confocal microscopy, uptake of rhodamine-labelled peptides into PMNs; format: cell-based, human; conditions: 20 µM rhodamine-labelled peptide, 2 min, PBS pH 7.4, room temperature, confocal microscopy after paraformaldehyde fixation
Method: PMNs (1.10^6/mL) were incubated 2 min at room temperature (RT) with rhodamine-labelled peptides (20 µM) in Phosphate Buffered Saline consisting of 10.5 mM KH2PO4, 30 mM Na2HPO4, 0.154 M NaCl, pH 7.4, washed and subsequently centrifuged by cytospins of 1–2.10^5 isolated PMNs onto glass slides (300 rpm, 10 min, RT). Cytospins were fixed with 4% (v/v) paraformaldehyde in PBS at RT for 20 min, then incubated with Draq-5 (dilution1∶500, Biostatus Limited., Leicestershire, UK) for 15 min. Stained cells were monitored with a Zeiss LSM 510 laser scanning microscope (Zeiss, Iena, Germany) equipped with a Planapo oil immersion objective (×63, numerical aperture 1.4).

iPLA2 = iPLA2 activity assay (modified cPLA2 assay kit); format: biochemical, human; conditions: 20 µM CHR, 20 µM CAT, 1 µM CMZ or 50 µM W7, 30 min at 37°C; absorbance 405 nm per mg protein; two experiments in triplicate
Method: C) iPLA2 activity assay: Stimulation of iPLA2 activity after treatment by 20 µM CHR or 20 µM CAT for 30 min at 37°C and comparison with the effects of two CaM-binding factors (1 µM CMZ, 50 µM W7) and one iPLA2 inhibitor (25 µM BEL). Activity of iPLA2 is expressed as the absorbance (Abs/mg of protein) at λ405 nm.
PMNs (3.10^8) were collected, sonicated 3 times for 10 s with a 15 s break between cycles, and centrifuged at 15,000× g for 20 min at 4°C. The supernatant was removed and kept on ice. After determination of the protein concentration (Bradford assay), iPLA2 activity measurement was obtained in presence of different peptide concentrations using the cPLA2 assay kit, according to the modified method previously reported (cPLA2 assay kit, Caymen chemical), [36]. Results were from two similar experiments, each performed in triplicates.

SOCs = test system: SOCs; parameters: method as in PMID 15280576, PMID 15951181, PMID 17003039; conditions: ref [42]–[44]; cited from earlier work
PMNs [3] = experiment: HPLC and NanoLC-MS/MS proteomic analysis of PMN secretions induced by CHR and CAT; conditions: trypsin, protein threshold 1 peptide score > 52 or at least 2 peptides with score >20

**Q.** Which “effect on glucose-evoked insulin secretion” value (pancreatic beta-cells) does the source give for “Pancreastatin (AAPGWPEDGAGKMGAEEAKPPEGKGEWAHSRQEEEEMARAPQVLFRG; Pancreastatin; UniProt P05059 266-312, looked up) [CgA-derived peptide (bCGA248–293)]” here?
**A.** The value was “able to inhibit the glucose-evoked insulin secretion from pancreatic beta-cells”.

**Q.** With “CIVEVISDTLSKPSPMPVSKEC (disulfide 1-22 (inferred)) [CgA17–40]” as the compound, how does the “Ca2+ influx” value (human PMNs) read?
**A.** The value was “failed to affect the Ca^2+ influx”.

**Q.** Which “inhibition of CAT-induced Ca2+ entry” value (PMNs [1]; PMNs, Fura-2, 20 µM CAT, 2.5 mM CaCl2, 100 µM 2-APB (2 min), 25 µM BEL (30 min) or 10 µM BPB (10 min) before peptide) does the source give for O=C1O/C(=C/Br)CCC1c1cccc2ccccc12 (stereo not shown) [BEL, Bromoenol lactone] here?
**A.** The value was “abolished the transient Ca^2+ influx”.

**Q.** And the “inhibition of CHR-induced Ca2+ entry” value (PMNs [1]; PMNs, Fura-2, 20 µM CHR, 2.5 mM CaCl2, 100 µM 2-APB (2 min), 25 µM BEL (30 min) or 10 µM BPB (10 min) before peptide)?
**A.** The value was “abolished the transient Ca^2+ influx”.

**Q.** And the “suppression of CMZ-induced Ca2+ influx” value (PMNs [1]; PMNs, Fura-2, 37°C, 1 µM CMZ, 25 µM BEL (30 min), 10 µM BPB (10 min) or 100 µM 2-APB (2 min) before)?
**A.** Its value is “significantly suppressed”.

**Q.** And the “suppression of W7-induced Ca2+ influx” value (PMNs [1]; PMNs, Fura-2, 37°C, 30 µM W7, 25 µM BEL (30 min), 10 µM BPB (10 min) or 100 µM 2-APB (2 min) before)?
**A.** The value was “significantly suppressed”.

**Q.** Which “Ca2+ influx” value (human PMNs) does the source give for “NSPMNKGDTEVMK [CgA4–16, peptide derived from the N-terminal CgA domain (…)]” here?
**A.** The value was “failed to affect the Ca^2+ influx”.

**Q.** Which “interaction with CaM by SPR” value (calmodulin (CaM)) does the source give for “scrambled CAT: scrambled CAT peptide (SLPRRQLPSSAGMRGGKFAYF)” here?
**A.** Its value is “inactive”.

**Q.** Which results are given for NCCOB(c1ccccc1)c1ccccc1 [2-APB, 2-aminoethyl diphenylborinate]?
**A.** inhibition of AA-induced Ca2+ influx (PMNs [1]): insensitive to 2-APB; inhibition of CAT-induced Ca2+ entry (PMNs [1]): completely blocked the entry of extracellular Ca^2+; also recorded: inhibits completely the calcium entry; also recorded: abolished the transient Ca^2+ influx induced by CHR or CAT similarly to 2-APB; inhibition of CHR-induced Ca2+ entry (PMNs [1]): completely blocked the entry of extracellular Ca^2+; also recorded: inhibits completely the calcium entry; also recorded: abolished the transient Ca^2+ influx induced by CHR or CAT similarly to 2-APB; suppression of CMZ-induced Ca2+ influx (PMNs [1]): significantly suppressed; suppression of W7-induced Ca2+ influx (PMNs [1]): significantly suppressed

**Q.** For [Cl][Gd]([Cl])[Cl] [Gd^3+, gadolinium chloride], which “inhibition of AA-induced Ca2+ influx” value (PMNs [1]) is on record?
**A.** The value was “inhibited by gadolinium chloride (Gd^3+)”.

**Q.** Which “Ca2+ influx induced by labelled control peptide” value (human PMNs; PMNs, data not shown, method and concentration not stated) does the source give for “rhodamine-labeled Hippocampal Cholinergic Neurostimulating Peptide (HCNP): control peptide, rhodamine-labeled Hippocampal Cholinergic Neurostimulating Peptide (HCNP) (rhodamine-PVDLSKWSGPL; reading uncertain; UniProt P30086 2-12, looked up)” here?
**A.** Its value is “unable to induce Ca^2+ influx into PMNs”.

**Q.** And the “detection in PMN cytoplasm (uptake)” value (PMNs [2])?
**A.** Its value is “not detected in the cytoplasm”.

**Q.** With CCCCC/C=C\C/C=C\C/C=C\C/C=C\CCCC(=O)O [AA, Arachidonic Acid] as the compound, how does the “Ca2+ influx induced by AA” value (PMNs [1]; PMNs, Fura-2, 50 µM AA, 2.5 mM CaCl2) read?
**A.** Its value is “calcium influx induced by 50 µM AA”.

**Q.** For NCCCCCCNS(=O)(=O)c1cccc2c(Cl)cccc12 [W7, N-(6-aminohexyl)-5-chloro-l-naphthalenesulfonamide], which “Ca2+ influx induced by CaM antagonists” value (PMNs [1]; PMNs, Fura-2, 37°C) is on record?
**A.** Its value is “induced longer lasting rises in influx”.

**Q.** And the “stimulation of iPLA2 enzymatic activity in PMNs” value (iPLA2)?
**A.** Its value is “stimulated”.

**Q.** With “rhodamine-labeled CAT: CAT conjugated with 5(6)-carboxytetramethyl rhodamine at the N-terminal extremity ({5(6)‑carboxytetramethylrhodamine}-SSMKLSFRARAYGFRGPGPQL; UniProt P10645 370-390, looked up)” as the compound, how does the “detection in PMN cytoplasm (uptake)” value (PMNs [2]) read?
**A.** The value was “detected in the cytoplasm”.

**Q.** For “ALQGAKERTHQQ [CgA65–76, the natural peptide CgA65–76 (…)]”, which “Ca2+ influx” value (human PMNs) is on record?
**A.** The value was “failed to affect the Ca^2+ influx”.

**Q.** What does the source list for Clc1ccc(C(c2ccc(Cl)cc2)n2cc[n+](CC(OCc3ccc(Cl)cc3Cl)c3ccc(Cl)cc3Cl)c2)cc1 (stereo not shown) [CMZ, calmidazolium]?
**A.** Ca2+ influx induced by CaM antagonists (PMNs [1]; PMNs, Fura-2, 37°C): induced longer lasting rises in influx; stimulation of iPLA2 enzymatic activity in PMNs (iPLA2): stimulated; direct activation of SOCs (SOCs): may directly activate SOCs without the release of intracellular Ca^2+ stores

**Q.** Which “Protein identified in PMN secretion (Protein name)” value (shortened to “Protein identified in PMN secretion”) (PMNs [3]; sample Castestatin_1, Mascot) does the source give for “Castestatin (SSMKLSFRARAYGFRGPGPQL; Catestatin; UniProt P10645 370-390, looked up)” here?
**A.** The value was “Protein S100-A9 - Homo sapiens (Human); also recorded: Protein S100-A12 - Homo sapiens (Human)”.

**Q.** What about the “Protein identified in PMN secretion” value (PMNs [3]; sample Castestatin_6, Mascot) of the same compound?
**A.** Its value is “Actin, cytoplasmic 1 - Homo sapiens (Human)”.

**Q.** And the “Protein identified in PMN secretion” value (PMNs [3]; sample Castestatin_7, Mascot)?
**A.** The value was “Actin, cytoplasmic 1 - Homo sapiens (Human)”.

**Q.** And the “Protein identified in PMN secretion” value (PMNs [3]; sample Castestatin_8, Mascot)?
**A.** The value was “Hemoglobin subunit alpha - Homo sapiens (Human)”.

**Q.** And the “Protein identified in PMN secretion” value (PMNs [3]; sample Castestatin_9, Mascot)?
**A.** Its value is “Hemoglobin subunit beta - Homo sapiens (Human)”.

**Q.** And the “Protein identified in PMN secretion” value (PMNs [3]; sample Castestatin_10, Mascot)?
**A.** Its value is “High mobility group protein B2 - Homo sapiens (Human); also recorded: Hemoglobin subunit beta - Homo sapiens (Human)”.

**Q.** And the “Protein identified in PMN secretion” value (PMNs [3]; sample Castestatin_11, Mascot)?
**A.** Its value is “Heterogeneous nuclear ribonucleoproteins A2/B1 - Homo sapiens (Human); also recorded: Phosphatidylethanolamine-binding protein 1 - Homo sapiens (Human); also recorded: Heterogeneous nuclear ribonucleoprotein A1 - Homo sapiens (Human); also recorded: Filamin-A - Homo sapiens (Human); also recorded: Low affinity immunoglobulin gamma Fc region receptor III-B precursor - Homo sapiens (Human); also recorded: Alpha-1-acid glycoprotein 1 precursor - Homo sapiens (Human); also recorded: Haptoglobin precursor [Contains: Haptoglobin alpha chain; Haptoglobin beta chain] - Homo sapiens (Human); also recorded: SH3 domain-binding glutamic acid-rich-like protein - Homo sapiens (Human)”.
